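The compound was tested at five concentrations on cells cultured in 96-well plates, with a 48-hour exposure period. Here, GI50 denotes the concentration required for 50% inhibition of growth. TGI: total growth inhibition.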
How the values were obtained:
Test in all cases: NCI-60 cell line screen, 48 h
[1] = tested on: CAKI-1 renal
[2] = tested on: CCRF-CEM leukemia
[3] = tested on: LOX IMVI melanoma
[4] = tested on: MALME-3M melanoma
[5] = tested on: MOLT-4 leukemia
[6] = tested on: RPMI-8226 leukemia
[7] = tested on: SK-MEL-5 melanoma
[8] = tested on: SN12C renal
[9] = tested on: T-47D breast
[10] = tested on: IGROV1 ovarian

Structure (SMILES): CC[C@H](Nc1nc(C)nc(N)c1C#N)c1nc2cccc(NCc3ccc(C(=O)NO)cc3)c2c(=O)n1-c1ccccc1
- GI50 [1]: 1.76 µM
- TGI [1]: 3.68 µM
- GI50 [2]: 0.551 µM
- TGI [2]: 9.21 µM
- GI50 [3]: 1.65 µM
- TGI [3]: 3.04 µM
- GI50 [4]: 1.48 µM
- TGI [4]: 4.05 µM
- GI50 [5]: 1.36 µM
- TGI [5]: 5.82 µM
- GI50 [6]: 2.03 µM
- TGI [6]: 5.26 µM
- GI50 [7]: 1.84 µM
- TGI [7]: 3.47 µM
- GI50 [8]: 1.65 µM
- TGI [8]: 3.92 µM
- GI50 [9]: 1.86 µM
- TGI [9]: 7.06 µM

Structure (SMILES): N#C/C(=C/n1c(=S)[nH]c2ccc([N+](=O)[O-])cc21)C(N)=O
- TGI [1]: > 100 µM
- TGI [2]: > 100 µM
- TGI [10]: > 100 µM
- TGI [3]: > 100 µM
- TGI [4]: > 100 µM
- TGI [5]: > 100 µM
- TGI [6]: > 100 µM
- TGI [7]: > 100 µM
- TGI [8]: > 100 µM

Structure (SMILES): CC(C)N1CC2CC(CN(C(=O)c3ccccc3)C2)C1
- TGI [1]: > 100 µM
- TGI [2]: > 100 µM
- TGI [10]: > 100 µM
- TGI [3]: > 100 µM
- TGI [4]: > 100 µM
- TGI [5]: > 100 µM
- TGI [6]: > 100 µM
- TGI [7]: > 100 µM
- TGI [8]: > 100 µM

Structure (SMILES): CCC(CO)Nc1nc(NCc2ccccc2)c2ncn(C(C)C)c2n1 (stereo not drawn)
- TGI [1]: > 82.5 µM
- TGI [2]: > 86.8 µM
- TGI [10]: > 100 µM
- TGI [3]: > 100 µM
- TGI [4]: 59.3 µM
- TGI [6]: > 100 µM
- TGI [7]: > 51.8 µM
- TGI [8]: > 100 µM
- TGI [9]: > 100 µM

Structure (SMILES): Cc1cc2c(O)c(c1)CN(CC(=O)O)Cc1cc(C)cc(c1O)CN(CC(=O)O)Cc1cc(C)cc(c1O)CN(CC(=O)O)C2
- TGI [1]: > 100 µM
- TGI [2]: > 100 µM
- TGI [3]: > 100 µM
- TGI [4]: > 100 µM
- TGI [5]: > 100 µM
- TGI [6]: > 100 µM
- TGI [7]: > 100 µM
- TGI [8]: > 100 µM
- TGI [9]: > 100 µM

Structure (SMILES): C=C1N(C=O)C(C)(C)N(O)C1(C)C
- TGI [1]: > 100 µM
- TGI [10]: > 100 µM
- TGI [3]: > 100 µM
- TGI [4]: > 100 µM
- TGI [5]: 84.4 µM
- TGI [6]: > 100 µM
- TGI [7]: > 100 µM
- TGI [8]: > 100 µM
- TGI [9]: > 100 µM

Structure (SMILES): COC(=O)C1=C(C(=O)OC)SC(=CC#CC=C2SC(C(=O)OC)=C(C(=O)OC)S2)S1
- TGI [1]: > 68.3 µM
- TGI [2]: > 100 µM
- TGI [10]: 45.8 µM
- TGI [3]: 44.2 µM
- TGI [4]: 64.1 µM
- TGI [5]: > 100 µM
- TGI [6]: > 100 µM
- TGI [7]: > 86.5 µM
- TGI [8]: > 52.5 µM

Structure (SMILES): CSc1cc(=O)n2c3ccccc3c3ccnc1c32
- TGI [2]: > 100 µM
- TGI [10]: > 79.1 µM
- TGI [3]: > 100 µM
- TGI [4]: > 100 µM
- TGI [5]: > 100 µM
- TGI [6]: > 100 µM
- TGI [7]: > 100 µM
- TGI [8]: > 100 µM

Structure (SMILES): COc1cc(C(c2c(O)c3ccccc3oc2=O)c2c(O)c3ccccc3oc2=O)cc(Br)c1O
- TGI [1]: 34.9 µM
- TGI [10]: 30 µM
- TGI [3]: 33.8 µM
- TGI [4]: 31 µM
- TGI [5]: 64.8 µM
- TGI [6]: 80.4 µM
- TGI [7]: 29.8 µM
- TGI [8]: 29.8 µM
- TGI [9]: 53.3 µM

Structure (SMILES): CC1=NN(c2nc(N)nc(-c3sccc3N)n2)C(C)(C)C1
- TGI [1]: > 100 µM
- TGI [2]: > 100 µM
- TGI [10]: > 100 µM
- TGI [3]: > 100 µM
- TGI [4]: > 100 µM
- TGI [5]: > 100 µM
- TGI [6]: 70.9 µM
- TGI [7]: > 100 µM
- TGI [8]: > 100 µM

Structure (SMILES): Cc1cc(S(=O)(=O)Nc2n[nH]c(-c3ccccn3)n2)c(S)cc1Cl
- TGI [1]: 15.7 µM
- TGI [10]: 85.4 µM
- TGI [3]: > 100 µM
- TGI [4]: 60.3 µM
- TGI [5]: > 100 µM
- TGI [6]: > 100 µM
- TGI [7]: 24.3 µM
- TGI [8]: > 100 µM
- TGI [9]: 56.2 µM

Structure (SMILES): Cc1ccc(C(=O)N/N=C(\N=Nc2ccccc2)c2ccc(N(C)C)cc2)cc1
- TGI [1]: > 100 µM
- TGI [2]: > 100 µM
- TGI [10]: > 100 µM
- TGI [3]: > 100 µM
- TGI [5]: > 100 µM
- TGI [6]: > 100 µM
- TGI [7]: > 100 µM
- TGI [8]: > 100 µM

Structure (SMILES): Cc1cc(C)c2c(=O)cc(-c3cccc(F)c3)[nH]c2n1
- TGI [1]: > 66.3 µM
- TGI [3]: 22 µM
- TGI [4]: > 100 µM
- TGI [5]: > 53.5 µM
- TGI [6]: > 55.1 µM
- TGI [7]: 6.38 µM
- TGI [8]: 20.3 µM
- TGI [9]: > 100 µM

Structure (SMILES): S=C(N/N=C\C(=N/NC(=S)N1CCCCC1)c1ccccc1)N1CCCCC1
- TGI [1]: 4.66 µM
- TGI [10]: 3.45 µM
- TGI [3]: > 100 µM
- TGI [4]: 3.57 µM
- TGI [6]: > 100 µM
- TGI [7]: 3.32 µM
- TGI [8]: 3.51 µM
- TGI [9]: 6.72 µM

Structure (SMILES): CC(C)C(CC(=O)OCC(CO)OC(=O)CC(C(C)C)C(C)C)C(C)C (stereo not drawn)
- TGI [1]: 25.4 µM
- TGI [2]: 31.7 µM
- TGI [10]: 33.2 µM
- TGI [4]: 28.4 µM
- TGI [5]: 31.5 µM
- TGI [7]: 24.7 µM
- TGI [8]: 28.3 µM
- TGI [9]: 31.7 µM

Structure (SMILES): C/C(Cl)=N\OC(=O)Nc1ccc(C)cc1
- TGI [1]: 30.4 µM
- TGI [2]: 6.31 µM
- TGI [10]: 32.5 µM
- TGI [3]: 43.7 µM
- TGI [4]: 31 µM
- TGI [7]: 31.5 µM
- TGI [8]: 33.7 µM
- TGI [9]: 48.2 µM

Structure (SMILES): CCn1c2ccc(C(=O)CCCN3CCCCC3)cc2c2cc(C(=O)CCCN3CCCCC3)ccc21
- TGI [1]: 8.54 µM
- TGI [2]: 9.83 µM
- TGI [10]: 8.73 µM
- TGI [3]: 4.47 µM
- TGI [4]: 18.5 µM
- TGI [6]: 4.7 µM
- TGI [7]: 2.92 µM
- TGI [8]: 20 µM
- TGI [9]: 49.9 µM

Structure (SMILES): CCc1c(CNc2ccc(C(=O)NC(CC(=O)O)C(=O)O)cc2)ccc2nc(N)nc(N)c12 (stereo not drawn)
- TGI [1]: > 1000 µM
- TGI [2]: > 1000 µM
- TGI [10]: > 1000 µM
- TGI [3]: > 1000 µM
- GI50 [4]: 0.179 µM
- TGI [4]: > 1000 µM
- TGI [5]: > 1000 µM
- GI50 [6]: 1.28 µM
- TGI [6]: > 1000 µM
- TGI [7]: > 1000 µM
- TGI [8]: > 1000 µM

Structure (SMILES): COc1cc(-c2n/c(=C\c3c(O)[nH]c4ccc(Cl)cc34)cc3c2=Nc2ccccc2-3)ccc1F
- GI50 [1]: 2.55 µM
- TGI [1]: 8.66 µM
- GI50 [2]: 2.39 µM
- TGI [2]: > 100 µM
- GI50 [10]: 2.07 µM
- TGI [10]: 5.17 µM
- GI50 [5]: 1.08 µM
- TGI [5]: 3.32 µM
- GI50 [6]: 6.75 µM
- TGI [6]: > 100 µM
- GI50 [7]: 2.84 µM
- TGI [7]: 10.8 µM
- GI50 [8]: 1.78 µM
- TGI [8]: 3.6 µM
- GI50 [9]: 1.5 µM
- TGI [9]: 3.5 µM

Structure (SMILES): O=C1C=CC=C/C1=C1\N=C(c2ccccc2OCC(=O)c2ccccc2)SS1
- TGI [1]: > 100 µM
- TGI [2]: > 100 µM
- TGI [10]: > 100 µM
- TGI [3]: > 100 µM
- TGI [4]: > 100 µM
- TGI [5]: 47.2 µM
- TGI [6]: > 100 µM
- TGI [8]: > 100 µM

Structure (SMILES): O=P(O)(O)c1ccccc1Oc1ccccc1
- TGI [1]: > 100 µM
- TGI [2]: > 100 µM
- TGI [10]: > 100 µM
- TGI [3]: > 100 µM
- TGI [5]: > 100 µM
- TGI [6]: > 100 µM
- TGI [7]: > 100 µM
- TGI [8]: > 100 µM

Structure (SMILES): CC(C)C(=O)C(C)(C)CCc1ccccn1
- TGI [1]: > 100 µM
- TGI [2]: > 100 µM
- TGI [10]: > 100 µM
- TGI [3]: > 100 µM
- TGI [4]: > 100 µM
- TGI [6]: > 100 µM
- TGI [7]: > 100 µM
- TGI [8]: > 100 µM
- TGI [9]: > 100 µM
